Measurements: ChEMBL document CHEMBL1201862, “PubChem BioAssay data set” (2004)
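These data come from cells grown in 96-well plates and exposed to compound for 48 hours at five concentrations. Abbreviation: GI50, concentration required for 50% inhibition of growth.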 Active and inactive are the calls of the source. No stated cut-off is given here; in the data, active = GI50 up to about 1.1 µM and inactive = higher.

Columns and labels:
Test in all cases: inhibition of tumour cell growth, NCI panel, 48 h
NCI-H226 = tested on: NCI-H226
SNB-75 = tested on: SNB-75
HOP-92 = tested on: HOP-92
SF-268 = tested on: SF-268
SK-MEL-28 = tested on: SK-MEL-28
SW-620 = tested on: SW-620
NCI-H23 = tested on: NCI-H23
SF-295 = tested on: SF-295
M14 = tested on: M14
ACHN = tested on: ACHN
HCT-15 = tested on: HCT-15
COLO 205 = tested on: COLO 205
TK-10 = tested on: TK-10
RPMI-8226 = tested on: RPMI-8226
UACC-257 = tested on: UACC-257
CCRF-CEM = tested on: CCRF-CEM
IGROV-1 = tested on: IGROV-1

Compound	GI50 (NCI-H226)	GI50 (SNB-75)	GI50 (HOP-92)	GI50 (SF-268)	GI50 (SK-MEL-28)	GI50 (SW-620)	GI50 (NCI-H23)	GI50 (SF-295)	GI50 (M14)	GI50 (ACHN)	GI50 (HCT-15) [µM]	GI50 (COLO 205)	GI50 (TK-10)	GI50 (RPMI-8226)	GI50 (UACC-257)	GI50 (CCRF-CEM)	GI50 (IGROV-1)
CCCCC1(OC(=O)CCC(=O)O)CCC2(CCC(C)C(C/C=C(C)/C=C/C(O)C(C)/C=C/C(=O)O)O2)OC1CC/C(C)=C/C(=O)O (configuration not stated)	2.14 µM (inactive)	2.31 µM (inactive)	1.67 µM (inactive)	2.51 µM (inactive)	2.02 µM (inactive)	8.3 µM (inactive)	0.535 µM (active)	4.57 µM (inactive)	1.92 µM (inactive)	5.74 µM (inactive)	3.45	16.6 µM (inactive)	17 µM (inactive)	3.15 µM (inactive)	1.55 µM (inactive)	3.94 µM (inactive)	1.47 µM (inactive)
O=C(NN1C(=O)C(Cl)C1c1cccc(Cl)c1)c1ccccc1O (configuration not stated)	> 100 µM (inactive)	> 100 µM (inactive)		> 100 µM (inactive)	> 100 µM (inactive)		> 100 µM (inactive)	68.4 µM (inactive)	> 100 µM (inactive)	> 100 µM (inactive)	> 100		> 100 µM (inactive)		> 100 µM (inactive)	> 100 µM (inactive)	> 100 µM (inactive)
CCCC(C(=O)OC)C1N/C(=N/C#N)N(Cc2ccccc2)C1=O (configuration not stated)		22.9 µM (inactive)		> 100 µM (inactive)	> 100 µM (inactive)	> 100 µM (inactive)	> 100 µM (inactive)	> 100 µM (inactive)	> 100 µM (inactive)	> 100 µM (inactive)	> 100	> 100 µM (inactive)	> 100 µM (inactive)	> 100 µM (inactive)	> 100 µM (inactive)	> 100 µM (inactive)	> 100 µM (inactive)
COc1cc2cnc3c4cc(O)ccc4ccc3c2cc1OC	26.4 µM (inactive)	22.6 µM (inactive)	> 100 µM (inactive)	23.6 µM (inactive)	65.6 µM (inactive)	54.7 µM (inactive)	45.7 µM (inactive)	92.7 µM (inactive)	> 100 µM (inactive)	> 100 µM (inactive)	> 100	12.9 µM (inactive)	> 100 µM (inactive)	> 100 µM (inactive)	56.6 µM (inactive)	29.9 µM (inactive)	75.7 µM (inactive)
CS(=O)(=O)NNS(=O)(=O)c1ccc(F)cc1	> 100 µM (inactive)	> 100 µM (inactive)		> 100 µM (inactive)		> 100 µM (inactive)	> 100 µM (inactive)	> 100 µM (inactive)	> 100 µM (inactive)	> 100 µM (inactive)	> 100	> 100 µM (inactive)	> 100 µM (inactive)	> 100 µM (inactive)	> 100 µM (inactive)	> 100 µM (inactive)	> 100 µM (inactive)
CC1=C(C(=O)CC(=O)C(=O)Nc2cccc(C)c2C)Sc2ccccc2N1	> 100 µM (inactive)		> 100 µM (inactive)	> 100 µM (inactive)	> 100 µM (inactive)	> 100 µM (inactive)	> 100 µM (inactive)	> 100 µM (inactive)	> 100 µM (inactive)	> 100 µM (inactive)	> 100		> 100 µM (inactive)	> 100 µM (inactive)	> 100 µM (inactive)	> 100 µM (inactive)	> 100 µM (inactive)
CCN(CC)CCC1(C2CCCCC2)CCC(=O)NC1=O (configuration not stated)	> 100 µM (inactive)	> 100 µM (inactive)		> 100 µM (inactive)	> 100 µM (inactive)	> 100 µM (inactive)	> 100 µM (inactive)	> 100 µM (inactive)	> 100 µM (inactive)	> 100 µM (inactive)	> 100	> 100 µM (inactive)	> 100 µM (inactive)	> 100 µM (inactive)	> 100 µM (inactive)	> 100 µM (inactive)	> 100 µM (inactive)
Cc1c2ccncc2c(C)c2c1[nH]c1ccc(OCC(F)(F)F)cc12	1.83 µM (inactive)	2.17 µM (inactive)	2.23 µM (inactive)	1.55 µM (inactive)	1.73 µM (inactive)	0.619 µM (active)	1.71 µM (inactive)	1.63 µM (inactive)	1.96 µM (inactive)	1.55 µM (inactive)	1.05	1.55 µM (inactive)	2.1 µM (inactive)	2.27 µM (inactive)	1.89 µM (inactive)	1.21 µM (inactive)	1.61 µM (inactive)
Cc1cccc(N2C(=O)C(Cl)=C(Cl)C2=O)c1	> 100 µM (inactive)	> 100 µM (inactive)	> 53.8 µM (inactive)	97.3 µM (inactive)	> 54.5 µM (inactive)	> 44 µM (inactive)	> 69.2 µM (inactive)	> 100 µM (inactive)	> 55.8 µM (inactive)	> 49.1 µM (inactive)	> 41.7	> 69 µM (inactive)	> 66.8 µM (inactive)	> 47.1 µM (inactive)	> 100 µM (inactive)	18.5 µM (inactive)	> 100 µM (inactive)
